Legend:
[1] = molecular target: Beta5 (purified human constitutive proteasome) (Homo sapiens, UniProt P28074); test: Determination of Beta5 activity (fluorescence intensity assay, Suc-LLVY-AMC); type: biochemical; settings: incubation for 20 minutes
Protocol: Determination of Beta5 Activity
Measurement of Beta5 inhibition is performed in 384 well format based on fluorescence intensity assay.
(§1) Purified human constitutive proteasome (1.25 nM) and serial diluted compounds in DMSO (range of concentrations from 30 μM to 15 pM) or controls are incubated for 20 minutes or 120 minutes (long incubation) at 25° C. in assay buffer containing 50 mM Tris pH 7.4, 0.03% SDS, 1 mM EDTA and 1% DMSO. The reaction is initiated by the addition of the fluorogenic peptide substrate, Suc-LLVY-AMC (Bachem I-1395), at a concentration of 40 μM. After 60 minutes of incubation at 37° C., fluorescence intensity is measured at λex=350 nm and λem=450 nm with a fluorescence reader (Perkin Elmer Envision reader or equivalent).
(§2) Unless indicated otherwise the results are obtained after incubation for 20 minutes.

[2] = molecular target: LMP7 (purified human immunoproteasome) (Homo sapiens, UniProt P28062); test: Determination of LMP7 activity (fluorescence intensity assay, Suc-LLVY-AMC); type: biochemical; settings: incubation for 20 minutes
Protocol: Determination of LMP7 Activity
Measurement of LMP7 inhibition is performed in 384 well format based on fluorescence intensity assay.
as §1, with “immunoproteasome (0.25” for “constitutive proteasome (1.25”
as §2

Row | IC50 [1] | Selectivity LMP7 vs Beta5 [1] | IC50 [2] | Compound
1 | 50 to 500 nM | +++ (+++: 30 ≤ Selectivity < 50) | < 50 nM | Cc1ccc(C[C@H](NC(=O)CCN(c2ccccc2)S(C)(=O)=O)B(O)O)cc1 [Compound No. 3, [(1R)-1-[3-(N-methylsulfonylanilino)propanoylamino]-2-(p-tolyl)ethyl]boronic acid]
2 | < 50 nM | +++ (+++: 30 ≤ Selectivity < 50) | < 50 nM | O=C(CCS(=O)(=O)c1ccccc1)N[C@@H](Cc1coc2ccccc12)B(O)O [Compound No. 4, [(1R)-1-[3-(benzenesulfonyl)propanoylamino]-2-(benzofuran-3-yl)ethyl]boronic acid]
3 | 500 to 5000 nM | +++ (+++: 30 ≤ Selectivity < 50) | 50 to 500 nM | CCN(CCC(=O)N[C@@H](Cc1ccccc1)B(O)O)C(=O)c1ccccc1 [Compound No. 8, [(1R)-1-[3-[benzoyl(ethyl)amino]propanoylamino]-2-phenyl-ethyl]boronic acid]
4 | 500 to 5000 nM | +++ (+++: 30 ≤ Selectivity < 50) | < 50 nM | CCN(CCC(=O)N[C@@H](Cc1ccccc1)B(O)O)C(=O)c1ccc(C)cc1 [Compound No. 14, [(1R)-1-[3-[ethyl-(4-methylbenzoyl)amino]propanoylamino]-2-phenyl-ethyl]boronic acid]
5 | > 5000 nM | +++ (+++: 30 ≤ Selectivity < 50) | 50 to 500 nM | CCc1cccc(C[C@H](NC(=O)CCCS(C)(=O)=O)B(O)O)c1 [Compound No. 21, [(1R)-2-(3-ethylphenyl)-1-(4-methylsulfonylbutanoylamino)ethyl]-boronic acid]
6 | 500 to 5000 nM | ++++ (++++: 50 ≤ Selectivity < 70) | < 50 nM | CCN(CCC(=O)N[C@@H](Cc1ccc(F)cc1)B(O)O)C(=O)c1ccc(OC)cc1 [Compound No. 25, [(1R)-1-[3-[ethyl-(4-methoxybenzoyl)amino]propanoylamino]-2-(4-fluorophenyl)ethyl]boronic acid]
7 | 500 to 5000 nM | +++++ (+++++: Selectivity ≥ 70) | < 50 nM | CCN(CC(=O)N[C@@H](Cc1ccc(C)cc1C)B(O)O)S(=O)(=O)c1ccc(C)cc1 [Compound No. 30, [(1R)-2-(2,4-dimethylphenyl)-1-[[2-[ethyl(p-tolylsulfonyl)amino]acetyl]-amino]ethyl]boronic acid]
8 | 50 to 500 nM | ++++ (++++: 50 ≤ Selectivity < 70) | < 50 nM | CCN(CC(=O)N[C@@H](Cc1ccc(C)cc1C)B(O)O)S(=O)(=O)c1cccc(C)c1 [Compound No. 31, [(1R)-2-(2,4-dimethylphenyl)-1-[[2-[ethyl(m-tolylsulfonyl)amino]-acetyl]amino]ethyl]boronic acid]
9 | 500 to 5000 nM | +++++ (+++++: Selectivity ≥ 70) | < 50 nM | CCC(=O)N(CC(=O)N[C@@H](Cc1ccc(C)cc1C)B(O)O)c1ccccc1 [Compound No. 34, [(1R)-2-(2,4-dimethylphenyl)-1-[[2-(N-propanoylanilino)acetyl]amino]-ethyl]boronic acid]

More lines, now with the values behind:

Row | Compound | IC50 [1] | Selectivity LMP7 vs Beta5 [1] | IC50 [2]
10 | CC(C)N(CCC(=O)N[C@@H](Cc1ccccc1)B(O)O)C(=O)c1ccccc1 [Compound No. 9, [(1R)-1-[3-[benzoyl(isopropyl)amino]propanoylamino]-2-phenyl-ethyl]boronic acid] | 500 to 5000 nM | +++ (+++: 30 ≤ Selectivity < 50) | 50 to 500 nM
11 | CCN(CC(=O)N[C@@H](Cc1ccc(C)cc1)B(O)O)S(=O)(=O)c1ccccc1 [Compound No. 16, [(1R)-1-[[2-[benzenesulfonyl(ethyl)amino]acetyl]amino]-2-(p-tolyl)ethyl]boronic acid] | 50 to 500 nM | +++ (+++: 30 ≤ Selectivity < 50) | < 50 nM
12 | CCc1cccc(C[C@H](NC(=O)CCCC(=O)N(C)C)B(O)O)c1 [Compound No. 18, [(1R)-1-[[5-(dimethylamino)-5-oxo-pentanoyl]amino]-2-(3-ethylphenyl)ethyl]boronic acid] | > 5000 nM | +++ (+++: 30 ≤ Selectivity < 50) | 500 to 5000 nM
13 | CCN(CCC(=O)N[C@@H](Cc1ccc(C)cc1C)B(O)O)C(=O)c1ccc(C)cc1 [Compound No. 19, [(1R)-2-(2,4-dimethylphenyl)-1-[3-[ethyl-(4-methylbenzoyl)amino]-propanoylamino]-ethyl]boronic acid] | 500 to 5000 nM | +++++ (+++++: Selectivity ≥ 70) | < 50 nM
14 | CCc1cccc(C[C@H](NC(=O)CCS(C)(=O)=O)B(O)O)c1 [Compound No. 20, [(1R)-2-(3-ethylphenyl)-1-(3-methylsulfonylpropanoylamino)ethyl]-boronic acid] | 500 to 5000 nM | +++ (+++: 30 ≤ Selectivity < 50) | 50 to 500 nM
15 | CCC(=O)N(CC)CC(=O)N[C@@H](Cc1ccc(C)cc1C)B(O)O [Compound No. 24, [(1R)-2-(2,4-dimethylphenyl)-1-[[2-[ethyl(propanoyl)amino]acetyl]-amino]ethyl]boronic acid] | > 5000 nM | +++++ (+++++: Selectivity ≥ 70) | 50 to 500 nM
16 | CCN(CCC(=O)N[C@@H](Cc1ccc(F)cc1)B(O)O)C(=O)c1ccc(Cl)cc1 [Compound No. 26, [(1R)-1-[3-[(4-chlorobenzoyl)-ethyl-amino]propanoylamino]-2-(4-fluorophenyl)ethyl]boronic acid] | 50 to 500 nM | ++++ (++++: 50 ≤ Selectivity < 70) | < 50 nM
17 | CCN(CCC(=O)N[C@@H](Cc1ccc(F)cc1)B(O)O)C(=O)c1ccc(C(F)(F)F)cc1 [Compound No. 27, [(1R)-1-[3-[ethyl-[4-(trifluoromethyl)benzoyl]amino]propanoylamino]-2-(4-fluorophenyl)ethyl]boronic acid] | 50 to 500 nM | +++ (+++: 30 ≤ Selectivity < 50) | < 50 nM
18 | CCN(CCC(=O)N[C@@H](Cc1ccc(F)cc1)B(O)O)C(=O)c1ccc(C#N)cc1 [Compound No. 28, [(1R)-1-[3-[(4-cyanobenzoyl)-ethyl-amino]propanoylamino]-2-(4-fluorophenyl)ethyl]boronic acid] | 500 to 5000 nM | ++++ (++++: 50 ≤ Selectivity < 70) | < 50 nM
19 | CCN(CC(=O)N[C@@H](Cc1ccc(C)cc1C)B(O)O)S(=O)(=O)c1ccccc1C [Compound No. 29, [(1R)-2-(2,4-dimethylphenyl)-1-[[2-[ethyl(o-tolylsulfonyl)amino]acetyl]-amino]ethyl]boronic acid] | 500 to 5000 nM | +++++ (+++++: Selectivity ≥ 70) | < 50 nM
20 | Cc1ccc(S(=O)(=O)N(C)CC(=O)N[C@@H](Cc2ccc(C)cc2C)B(O)O)cc1 [Compound No. 32, [(1R)-2-(2,4-dimethylphenyl)-1-[[2-[methyl(p-tolylsulfonyl)amino]-acetyl]amino]ethyl]boronic acid] | 50 to 500 nM | +++++ (+++++: Selectivity ≥ 70) | < 50 nM
21 | Cc1ccc(S(=O)(=O)N(CC(=O)N[C@@H](Cc2ccc(C)cc2C)B(O)O)C(C)C)cc1 [Compound No. 33, [(1R)-2-(2,4-dimethylphenyl)-1-[[2-[isopropyl(p-tolylsulfonyl)amino]-acetyl]amino]ethyl]boronic acid] | 500 to 5000 nM | +++++ (+++++: Selectivity ≥ 70) | < 50 nM

Source: patent US10253049B2, “Boronic acid derivatives” (MERCK PATENT GMBH, priority 2014, dated 2019)
